Test results published in patent US20190152957A1, “PYRIDIN-3-YL ACETIC ACID DERIVATIVES AS INHIBITORS OF HUMAN IMMUNODEFICIENCY VIRUS REPLICATION” (ViiV HEALTHCARE UK (NO.5) LIMITED, priority 2016, published 2019).
Read-outs that look alike come from different tables or passages of the source.

Tested on: recombinant NL-RLuc virus (HIV NL4-3 with Renilla Luciferase gene) in MT-2 cells
Assay: Inhibition of HIV replication (NL-RLuc virus, luciferase readout in MT-2 cells)
Type: cell-based
Conditions: MT2, 120 h
Source text: Inhibition of HIV Replication:
A recombinant NL-RLuc proviral clone was constructed in which a section of the nef gene from NL4-3 was replaced with the Renilla Luciferase gene. This virus is fully infectious and can undergo multiple cycles of replication in cell culture. In addition, the luciferous reporter provides a simple and easy method for quantitating the extent of virus growth and consequently, the antiviral activity of test compounds. The plasmid pNLRLuc contains the proviral NL-Rluc DNA cloned into pUC18 at the PvuII site. The NL-RLuc virus was prepared by transfection of 293T cells with the plasmid pNLRLuc. Transfections were performed using the LipofectAMINE PLUS kit from Invitrogen (Carlsbad, Calif.) according to the manufacturer and the virus generated was titered in MT-2 cells. For susceptibility analyses, the titrated virus was used to infect MT-2 cells in the presence of compound, and after 5 days of incubation, cells were processed and quantitated for virus growth by the amount of expressed luciferase. Assay media was RPMI 1640 supplemented with 10% heat inactivated fetal bovine serum (FBS), 100 units/ml penicillin G/100 units/ml streptomycin, 10 mM HEPES buffer pH 7.55 and 2 mM L-glutamine. The results from at least 2 experiments were used to calculate the EC50 values. Luciferase was quantitated using the Dual Luciferase kit from Promega (Madison, Wis.). Susceptibility of viruses to compounds was determined by incubation in the presence of serial dilutions of the compound. The 50% effective concentration (EC50) was calculated by using the exponential form of the median effect equation where (Fa)=1/[1+(ED50/drug conc.)^m](Johnson V A, Byington R T. Infectivity Assay. In Techniques in HIV Research. ed. Aldovini A, Walker BD. 71-76. New York: Stockton Press. 1990). Activity equal to A refers to a compound having an EC50≤100 nM, while B and C denote compounds having an EC50 between 100 nM and 1 uM (B) or >1 uM (C).

SMILES | EC50 (read-out: Activity) [µM] | EC50 (read-out: EC50 μM) [µM]
Cc1nc(C)c([C@H](OC(C)(C)C)C(=O)O)c(N2CCC(C)(C)CC2)c1-c1ccc2c(c1)CCN(CC1CCCOC1)C2 (stereo partly drawn) [Compound 1, (2S)-2-(tert-butoxy)-2-(4-(4,4-dimethylpiperidin-1-yl)-2,6-dimethyl-5-(2-((tetrahydro-2H-pyran-3-yl)methyl)-1,2,3,4-tetrahydroisoquinolin-6-yl)pyridin-3-yl)acetic acid] | < 0.1 | 0.028
Cc1nc(C)c([C@H](OC(C)(C)C)C(=O)O)c(N2CCC(C)(C)CC2)c1-c1ccc2c(c1)CCN(CC1C[C@@H]3CC[C@H]1C3)C2 (stereo partly drawn) [Compound 2, (2S)-2-(5-(2-((1S,4R)-bicyclo[2.2.1]heptan-2-ylmethyl)-1,2,3,4-tetrahydroisoquinolin-6-yl)-4-(4,4-dimethylpiperidin-1-yl)-2,6-dimethylpyridin-3-yl)-2-(tert-butoxy)acetic acid] | < 0.1 | –
Cc1nc(C)c([C@H](OC(C)(C)C)C(=O)O)c(N2CCC(C)(C)CC2)c1-c1ccc2c(c1)CCN(CC1CCOC(C)(C)C1)C2 (stereo partly drawn) [Compound 3, (2S)-2-(tert-butoxy)-2-(4-(4,4-dimethylpiperidin-1-yl)-5-(2-((2,2-dimethyltetrahydro-2H-pyran-4-yl)methyl)-1,2,3,4-tetrahydroisoquinolin-6-yl)-2,6-dimethylpyridin-3-yl)acetic acid] | < 0.1 | –
Cc1nc(C)c([C@H](OC(C)(C)C)C(=O)O)c(N2CCC(C)(C)CC2)c1-c1ccc2c(c1)CCN(CC1CC1)C2 [Compound 4, (S)-2-(tert-butoxy)-2-(5-(2-(cyclopropylmethyl)-1,2,3,4-tetrahydroisoquinolin-6-yl)-4-(4,4-dimethylpiperidin-1-yl)-2,6-dimethylpyridin-3-yl)acetic acid] | < 0.1 | –
Cc1nc(C)c([C@H](OC(C)(C)C)C(=O)O)c(N2CCC(C)(C)CC2)c1-c1ccc2c(c1)CCN(CC1CCCCC1)C2 [Compound 5, (S)-2-(tert-butoxy)-2-(5-(2-(cyclohexylmethyl)-1,2,3,4-tetrahydroisoquinolin-6-yl)-4-(4,4-dimethylpiperidin-1-yl)-2,6-dimethylpyridin-3-yl)acetic acid] | < 0.1 | –
Cc1nc(C)c([C@H](OC(C)(C)C)C(=O)O)c(N2CCC(C)(C)CC2)c1-c1ccc2c(c1)CCN(C[C@H]1C[C@H]3C=C[C@@H]1C3)C2 [Compound 6, (S)-2-(5-(2-((1S,2S,4S)-bicyclo[2.2.1]hept-5-en-2-ylmethyl)-1,2,3,4-tetrahydroisoquinolin-6-yl)-4-(4,4-dimethylpiperidin-1-yl)-2,6-dimethylpyridin-3-yl)-2-(tert-butoxy)acetic acid] | < 0.1 | –
Cc1nc(C)c([C@H](OC(C)(C)C)C(=O)O)c(N2CCC(C)(C)CC2)c1-c1ccc2c(c1)CCN(C[C@H]1C[C@@H]3C=C[C@H]1C3)C2 [Compound 7, (S)-2-(5-(2-((1R,2S,4R)-bicyclo[2.2.1]hept-5-en-2-ylmethyl)-1,2,3,4-tetrahydroisoquinolin-6-yl)-4-(4,4-dimethylpiperidin-1-yl)-2,6-dimethylpyridin-3-yl)-2-(tert-butoxy)acetic acid] | < 0.1 | –
Cc1ncsc1CN1CCc2cc(-c3c(C)nc(C)c([C@H](OC(C)(C)C)C(=O)O)c3N3CCC(C)(C)CC3)ccc2C1 [Compound 8, (S)-2-(tert-butoxy)-2-(4-(4,4-dimethylpiperidin-1-yl)-2,6-dimethyl-5-(2-((4-methylthiazol-5-yl)methyl)-1,2,3,4-tetrahydroisoquinolin-6-yl)pyridin-3-yl)acetic acid] | < 0.1 | 0.002
Cc1nc(C)c([C@H](OC(C)(C)C)C(=O)O)c(N2CCC(C)(C)CC2)c1-c1ccc2c(c1)CCN(Cc1nccs1)C2 [Compound 9, (S)-2-(tert-butoxy)-2-(4-(4,4-dimethylpiperidin-1-yl)-2,6-dimethyl-5-(2-(thiazol-2-ylmethyl)-1,2,3,4-tetrahydroisoquinolin-6-yl)pyridin-3-yl)acetic acid] | < 0.1 | –
Cc1nc(C)c([C@H](OC(C)(C)C)C(=O)O)c(N2CCC(C)(C)CC2)c1-c1ccc2c(c1)CCN(Cc1cscn1)C2 [Compound 10, (S)-2-(tert-butoxy)-2-(4-(4,4-dimethylpiperidin-1-yl)-2,6-dimethyl-5-(2-(thiazol-4-ylmethyl)-1,2,3,4-tetrahydroisoquinolin-6-yl)pyridin-3-yl)acetic acid] | < 0.1 | –
Cc1nc(C)c([C@H](OC(C)(C)C)C(=O)O)c(N2CCC(C)(C)CC2)c1-c1ccc2c(c1)CCN(Cc1cccnc1)C2 [Compound 11, (S)-2-(tert-butoxy)-2-(4-(4,4-dimethylpiperidin-1-yl)-2,6-dimethyl-5-(2-(pyridin-3-ylmethyl)-1,2,3,4-tetrahydroisoquinolin-6-yl)pyridin-3-yl)acetic acid] | < 0.1 | –
Cc1nc(C)c([C@H](OC(C)(C)C)C(=O)O)c(N2CCC(C)(C)CC2)c1-c1ccc2c(c1)CCN(Cc1ccncc1)C2 [Compound 12, (S)-2-(tert-butoxy)-2-(4-(4,4-dimethylpiperidin-1-yl)-2,6-dimethyl-5-(2-(pyridin-4-ylmethyl)-1,2,3,4-tetrahydroisoquinolin-6-yl)pyridin-3-yl)acetic acid] | < 0.1 | –
Cc1cc(CN2CCc3cc(-c4c(C)nc(C)c([C@H](OC(C)(C)C)C(=O)O)c4N4CCC(C)(C)CC4)ccc3C2)no1 [Compound 13, (S)-2-(tert-butoxy)-2-(4-(4,4-dimethylpiperidin-1-yl)-2,6-dimethyl-5-(2-((5-methylisoxazol-3-yl)methyl)-1,2,3,4-tetrahydroisoquinolin-6-yl)pyridin-3-yl)acetic acid] | < 0.1 | –
Cc1nc(C)c([C@H](OC(C)(C)C)C(=O)O)c(N2CCC(C)(C)CC2)c1-c1ccc2c(c1)CCN(Cc1nc(-c3ccccc3)oc1C)C2 [Compound 14, (S)-2-(tert-butoxy)-2-(4-(4,4-dimethylpiperidin-1-yl)-2,6-dimethyl-5-(2-((5-methyl-2-phenyloxazol-4-yl)methyl)-1,2,3,4-tetrahydroisoquinolin-6-yl)pyridin-3-yl)acetic acid] | < 0.1 | 0.016
CCn1cncc1CN1CCc2cc(-c3c(C)nc(C)c([C@H](OC(C)(C)C)C(=O)O)c3N3CCC(C)(C)CC3)ccc2C1 [Compound 15, (S)-2-(tert-butoxy)-2-(4-(4,4-dimethylpiperidin-1-yl)-5-(2-((1-ethyl-1H-imidazol-5-yl)methyl)-1,2,3,4-tetrahydroisoquinolin-6-yl)-2,6-dimethylpyridin-3-yl)acetic acid] | < 0.1 | –
Cc1cc(CN2CCc3cc(-c4c(C)nc(C)c([C@H](OC(C)(C)C)C(=O)O)c4N4CCC(C)(C)CC4)ccc3C2)n(C)n1 [Compound 16, (S)-2-(tert-butoxy)-2-(5-(2-((1,3-dimethyl-1H-pyrazol-5-yl)methyl)-1,2,3,4-tetrahydroisoquinolin-6-yl)-4-(4,4-dimethylpiperidin-1-yl)-2,6-dimethylpyridin-3-yl)acetic acid] | < 0.1 | –
Cc1nc(C)c([C@H](OC(C)(C)C)C(=O)O)c(N2CCC(C)(C)CC2)c1-c1ccc2c(c1)CCN(Cc1ncc[nH]1)C2 [Compound 17, (S)-2-(5-(2-((1H-imidazol-2-yl)methyl)-1,2,3,4-tetrahydroisoquinolin-6-yl)-4-(4,4-dimethylpiperidin-1-yl)-2,6-dimethylpyridin-3-yl)-2-(tert-butoxy)acetic acid] | 0.1 to 1 | 0.544
Cc1nc(CN2CCc3cc(-c4c(C)nc(C)c([C@H](OC(C)(C)C)C(=O)O)c4N4CCC(C)(C)CC4)ccc3C2)c(C)o1 [Compound 18, (S)-2-(tert-butoxy)-2-(5-(2-((2,5-dimethyloxazol-4-yl)methyl)-1,2,3,4-tetrahydroisoquinolin-6-yl)-4-(4,4-dimethylpiperidin-1-yl)-2,6-dimethylpyridin-3-yl)acetic acid] | < 0.1 | –
Cc1nc(C)c([C@H](OC(C)(C)C)C(=O)O)c(N2CCC(C)(C)CC2)c1-c1ccc2c(c1)CCN(Cc1cnn(-c3ccc(F)cc3)c1)C2 [Compound 19, (S)-2-(tert-butoxy)-2-(4-(4,4-dimethylpiperidin-1-yl)-5-(2-((1-(4-fluorophenyl)-1H-pyrazol-4-yl)methyl)-1,2,3,4-tetrahydroisoquinolin-6-yl)-2,6-dimethylpyridin-3-yl)acetic acid] | < 0.1 | –
Cc1nc(C)c([C@H](OC(C)(C)C)C(=O)O)c(N2CCC(C)(C)CC2)c1-c1ccc2c(c1)CCN(Cc1cnc(-c3ccccc3)[nH]1)C2 [Compound 20, (S)-2-(tert-butoxy)-2-(4-(4,4-dimethylpiperidin-1-yl)-2,6-dimethyl-5-(2-((2-phenyl-1H-imidazol-5-yl)methyl)-1,2,3,4-tetrahydroisoquinolin-6-yl)pyridin-3-yl)acetic acid] | < 0.1 | –
